According to publication PMC5632672, “Generation of Persister Cells of Pseudomonas aeruginosa and Staphylococcus aureus by Chemical Treatment and Evaluation of Their Susceptibility to Membrane-Targeting Agents” (Frontiers in Microbiology, 2017):
No end group written: not given here.

Experiments:
[1] = test system: Pseudomonas aeruginosa ATCC 27853; details: ATCC 27853, 3 h
[2] = test system: Staphylococcus aureus ATCC 33591; details: ATCC 33591, 3 h

**Q.** Which results are given for FLPIVGLLKSLLK-NH2 [TB_L1FK]?
**A.** MBC, P. aeruginosa CCCP-pretreated [1]: 14 µM; MBC, P. aeruginosa CCCP-untreated [1]: 14 µM; MBC, S. aureus CCCP-pretreated [2]: 3.5 µM; MBC, S. aureus CCCP-untreated [2]: 7 µM
